# Source: ChEMBL document CHEMBL3727346, “6-(pyridinyl)-4-pyrimidone derivates as tau protein kinase 1 inhibitors” (2011)
# Active and inactive are the calls of the source. No rule for the calls is given here.
# Molecular target: Glycogen synthase kinase-3 beta splice variant X1 (Bos taurus) (UniProt A0A059UE90)
# Test: Inhibition of bovine cerebral TPK1 assessed as reduction in P-GS1 phosphorylation using [32gammaP]ATP incubated for 2 hrs by liquid scintillation counting method
row,SMILES,inhibition
1,CC(=O)N(C)[C@@H]1CCN(c2ccc([C@H]3CN(c4nc(-c5ccncc5F)cc(=O)n4C)CCO3)cc2)C1,Active
2,CN(C)CCCOc1ccc([C@H]2CN(c3nc(-c4ccncc4F)cc(=O)n3C)CCO2)cc1,Active
3,COc1ccc(C#N)cc1[C@H]1CN(c2nc(-c3ccncc3F)c(F)c(=O)n2C)CCO1,Active
4,Cn1c(N2CCO[C@@H](c3ccc(OC4CCCC4)cc3)C2)nc(-c2ccncc2F)cc1=O,Active
5,COc1cc(Cl)ccc1[C@H]1CN(c2nc(-c3ccncc3F)cc(=O)n2C)CCO1,Active
6,Cn1c(N2CCO[C@@H](c3ccc(NC(=O)CN4CCN(c5ccccc5)CC4)cc3)C2)nc(-c2ccncc2F)cc1=O,Active
7,Cn1c(N2CCOC(c3ccc4c(c3)C(C)(C)CC(=O)N4)C2)nc(-c2ccncc2F)cc1=O (racemic),Active
8,Cn1c(N2CCO[C@@H](c3ccc(Nc4ccncc4)cc3)C2)nc(-c2ccncc2F)cc1=O,Active
9,Cn1c(N2CCO[C@@H](c3ccc(NC(=O)C4CC4)cc3)C2)nc(-c2ccncc2F)cc1=O,Active
10,Cn1c(N2CCN[C@@H](c3ccc(-c4ccc(OCC5CC5)cc4)cc3)C2)nc(-c2ccncc2F)cc1=O,Active
11,CC(=O)Nc1ccc([C@H]2CN(c3nc(-c4ccncc4F)cc(=O)n3C)CCO2)cc1,Active
12,Cn1c(N2CCO[C@@H](c3ccc(CO)cc3)C2)nc(-c2ccncc2F)cc1=O,Active
13,CN(C)[C@@H]1CCN(c2ccc([C@H]3CN(c4nc(-c5ccncc5F)cc(=O)n4C)CCN3)cc2)C1,Active
14,CN(C)c1ccc([C@H]2CN(c3nc(-c4ccncc4F)cc(=O)n3C)CCN2)cc1,Active
15,CN(c1ccc([C@H]2CN(c3nc(-c4ccncc4F)cc(=O)n3C)CCN2)cc1)C1CCCCC1,Active
16,CN(C)C1CCN(c2ccc([C@H]3CN(c4nc(-c5ccncc5F)cc(=O)n4C)CCN3)cc2)CC1,Active
17,CN(C)c1cccc2c(S(=O)(=O)Nc3ccc([C@H]4CN(c5nc(-c6ccncc6F)cc(=O)n5C)CCO4)cc3)cccc12,Active
18,Cn1c(N2CCO[C@@H](c3ccc(N4CCC[C@H]5CCCC[C@@H]54)cc3)C2)nc(-c2ccncc2F)cc1=O,Active
19,CN(C)[C@H]1CCN(c2ccc([C@H]3CN(c4nc(-c5ccncc5F)cc(=O)n4C)CCN3)cc2)C1,Active
20,Cn1c(N2CCO[C@@H](c3ccc(N4CCCNC4=O)cc3)C2)nc(-c2ccncc2F)cc1=O,Active
21,CC(O)c1ccc([C@H]2CN(c3nc(-c4ccncc4F)cc(=O)n3C)CCO2)cc1 (stereo partly specified),Active

row,SMILES,inhibition
1,Cn1c(N2CCO[C@@H](c3ccc(C(=O)N4CCCCC4)cc3)C2)nc(-c2ccncc2F)cc1=O,Active
2,Cn1c(N2CCO[C@@H](c3ccc(N4CC[C@H](N5CCCCC5)C4)cc3)C2)nc(-c2ccncc2F)cc1=O,Active
3,Cn1c(N2CCO[C@@H](c3ccc(OCCCN4CCCCC4)cc3)C2)nc(-c2ccncc2F)cc1=O,Active
4,Cn1c(N2CCO[C@@H](c3ccc(OCCN4CCN(C(=O)c5ccccc5)CC4)cc3)C2)nc(-c2ccncc2F)cc1=O,Active
5,Cn1c(N2CCN[C@@H](c3ccc(-c4ccc(Cl)c(Cl)c4)cc3)C2)nc(-c2ccncc2F)cc1=O,Active
6,CN(C)[C@@H]1CCN(c2ccc([C@H]3CN(c4nc(-c5ccncc5F)cc(=O)n4C)CCO3)cc2)C1,Active
7,CC(C)Nc1ccc([C@H]2CN(c3nc(-c4ccncc4F)cc(=O)n3C)CCO2)cc1,Active
8,CCN(c1ccc([C@H]2CN(c3nc(-c4ccncc4F)cc(=O)n3C)CCO2)cc1)C1CCCCC1,Active
9,COc1ccc(C2(O)CCN(C)CC2)cc1[C@H]1CN(c2nc(-c3ccncc3F)cc(=O)n2C)CCO1,Active
10,Cn1c(N2CCO[C@@H](c3ccc(C(=O)NCCO)cc3)C2)nc(-c2ccncc2F)cc1=O,Active
11,CCN(CC)CCOc1ccc([C@H]2CN(c3nc(-c4ccncc4F)cc(=O)n3C)CCO2)cc1,Active
12,Cn1c(N2CCO[C@@H](c3ccc(F)cc3)C2)nc(-c2ccncc2F)cc1=O,Active
13,Cn1c(N2CCO[C@@H](c3ccc([N+](=O)[O-])cc3)C2)nc(-c2ccncc2F)cc1=O,Active
14,CSc1ccc([C@H]2CN(c3nc(-c4ccncc4F)cc(=O)n3C)CCO2)cc1,Active
15,CCN(CC)Cc1ccc([C@H]2CN(c3nc(-c4ccncc4F)cc(=O)n3C)CCO2)cc1,Active
16,Cn1c(N2CCNC(c3ccc(N4CCN(C(=O)OCc5ccccc5)CC4)cc3)C2)nc(-c2ccncc2F)cc1=O (stereo unspecified),Active
17,CCOc1ccc(-c2ccc([C@H]3CN(c4nc(-c5ccncc5F)cc(=O)n4C)CCN3)cc2)cc1,Active
18,Cn1c(N2CCN[C@@H](c3ccc(-c4ccc(S(C)(=O)=O)cc4)cc3)C2)nc(-c2ccncc2F)cc1=O,Active
19,Cn1c(N2CCNC(c3ccc(N4CCNCC4)cc3)C2)nc(-c2ccncc2F)cc1=O (stereo unspecified),Active
20,CNc1ccc([C@H]2CN(c3nc(-c4ccncc4F)cc(=O)n3C)CCO2)cc1,Active
21,CC(=O)N(C)c1ccc([C@H]2CN(c3nc(-c4ccncc4F)cc(=O)n3C)CCO2)cc1,Active

row,SMILES,inhibition
1,Cn1c(N2CCN[C@@H](c3ccc(N4CCC(N5CCCC5)CC4)cc3)C2)nc(-c2ccncc2F)cc1=O,Active
2,CC(=O)N(c1ccc([C@H]2CN(c3nc(-c4ccncc4F)cc(=O)n3C)CCO2)cc1)C(C)C,Active
3,CCc1nc(-c2ccc([C@H]3CN(c4nc(-c5ccncc5F)cc(=O)n4C)CCN3)cc2)no1,Active
4,Cn1c(N2CCO[C@@H](c3ccc(NC45CC6CC(CC(C6)C4)C5)cc3)C2)nc(-c2ccncc2F)cc1=O,Active
5,Cn1c(N2CCO[C@@H](c3ccc(N4CC[C@@H](N5CCCCC5)C4)cc3)C2)nc(-c2ccncc2F)cc1=O,Active
6,CNC(=S)Nc1ccc([C@H]2CN(c3nc(-c4ccncc4F)cc(=O)n3C)CCO2)cc1,Active
7,Cn1c(N2CCN[C@@H](c3ccc(N4CCC(O)CC4)cc3)C2)nc(-c2ccncc2F)cc1=O,Active
8,Cn1c(N2CCN[C@@H](c3ccc(N4CC[C@H](N5CCCC5)C4)cc3)C2)nc(-c2ccncc2F)cc1=O,Active
9,Cn1c(N2CCN[C@@H](c3ccc(N4CCN(CCO)CC4)cc3)C2)nc(-c2ccncc2F)cc1=O,Active
10,COc1ccc(-c2ccc([C@H]3CN(c4nc(-c5ccncc5F)cc(=O)n4C)CCN3)cc2)cc1OC,Active
11,Cn1c(N2CCO[C@@H](c3ccc(NS(=O)(=O)c4ccccc4)cc3)C2)nc(-c2ccncc2F)cc1=O,Active
12,Cn1c(N2CCN[C@@H](c3ccc(-c4ccc(N)cc4)cc3)C2)nc(-c2ccncc2F)cc1=O,Active
13,CN(C)CCOc1ccc([C@H]2CN(c3nc(-c4ccncc4F)cc(=O)n3C)CCO2)cc1,Active
14,CCOC(=O)Nc1ccc([C@H]2CN(c3nc(-c4ccncc4F)cc(=O)n3C)CCO2)cc1,Active
15,Cn1c(N2CCOC(c3ccc(Br)cc3)C2)nc(-c2ccncc2F)cc1=O (stereo unspecified),Active
16,Cn1c(N2CCO[C@@H](c3ccc(OC4CCN(C(=O)c5ccccc5)CC4)cc3)C2)nc(-c2ccncc2F)cc1=O,Active
17,Cn1c(N2CCO[C@@H](c3ccc(NC4CCCC4)cc3)C2)nc(-c2ccncc2F)cc1=O,Active
18,Cn1c(N2CCO[C@@H](c3ccc(OCCCN4CCCC4)cc3)C2)nc(-c2ccncc2F)cc1=O,Active
19,COc1ccc(C#N)cc1[C@H]1CN(c2nc(-c3ccncc3F)cc(=O)n2C)CCO1,Active
20,CN1CCN(c2ccc([C@H]3CN(c4nc(-c5ccncc5F)cc(=O)n4C)CCO3)cc2)CC1,Active
21,Cn1c(N2CCO[C@@H](c3ccc(OCCN4CCCC4)cc3)C2)nc(-c2ccncc2F)cc1=O,Active

row,SMILES,inhibition
1,COc1ccc(NS(C)(=O)=O)cc1[C@H]1CN(c2nc(-c3ccncc3F)cc(=O)n2C)CCO1,Active
2,Cn1c(N2CCO[C@@H](c3ccc(Nc4ccccn4)cc3)C2)nc(-c2ccncc2F)cc1=O,Active
3,Cn1c(N2CCOC(c3cccc(-c4cncnc4)c3)C2)nc(-c2ccncc2F)cc1=O (racemic),Active
4,Cn1c(N2CCO[C@@H](c3ccc(F)c(N)c3)C2)nc(-c2ccncc2F)cc1=O,Active
5,Cn1c(N2CCO[C@@H](c3ccc(NS(=O)(=O)CCl)cc3)C2)nc(-c2ccncc2F)cc1=O,Active
6,CC(=O)N[C@H]1CCN(c2ccc([C@H]3CN(c4nc(-c5ccncc5F)cc(=O)n4C)CCO3)cc2)C1,Active
7,Cn1c(N2CCN[C@@H](c3ccc(N4CC[C@@H](O)C4)cc3)C2)nc(-c2ccncc2F)cc1=O,Active
8,CN(C)S(=O)(=O)c1ccc([C@H]2CN(c3nc(-c4ccncc4F)cc(=O)n3C)CCO2)cc1,Active
9,CC(=O)c1ccc([C@H]2CN(c3nc(-c4ccncc4F)cc(=O)n3C)CCO2)cc1,Active
10,Cc1cc(N2CCN(c3ccc(C4CN(c5nc(-c6ccncc6F)cc(=O)n5C)CCO4)cc3)CC2)n(-c2ccccc2)n1 (stereo unspecified),Active
11,Cn1c(N2CCO[C@@H](c3ccc(NC(=O)CN4CCCCC4)cc3)C2)nc(-c2ccncc2F)cc1=O,Active
12,CN(c1ccc([C@H]2CN(c3nc(-c4ccncc4F)cc(=O)n3C)CCO2)cc1)C1CCCC1,Active
13,Cn1c(N2CCO[C@@H](c3ccc(NC(=O)OCc4ccccc4)cc3)C2)nc(-c2ccncc2F)cc1=O,Active
14,Cn1c(N2CCO[C@@H](c3ccc(N4CCCC4)cc3)C2)nc(-c2ccncc2F)cc1=O,Active
15,Cn1c(N2CCO[C@@H](c3ccc(C(C)(C)O)cc3)C2)nc(-c2ccncc2F)cc1=O,Active
16,Cn1c(N2CCO[C@@H](c3ccc(NC(=S)Nc4cccnc4)cc3)C2)nc(-c2ccncc2F)cc1=O,Active
17,Cn1c(N2CCN[C@@H](c3ccc(N4CCC(O)C4)cc3)C2)nc(-c2ccncc2F)cc1=O (stereo partly specified),Active
18,C[C@@H]1CN(c2ccc([C@H]3CN(c4nc(-c5ccncc5F)cc(=O)n4C)CCN3)cc2)C[C@H](C)O1,Active
